Results taken from ChEMBL document CHEMBL3301472, “MMV Malaria Box HIV and cytotoxicity screening”.

What was measured:
[1] = system: Human immunodeficiency virus 1; assay: MMV: HIV CXCR4-tropic env NL4-3 pseudovirus assay produces luciferase signal in lieu of replicating viral particles Day 3 pi, U87-CD4-CXCR4, % inhibition at 5 mM compound; type: functional; set-up: dose or concentration left out as unconfirmed; conditions: Human immunodeficiency virus 1, NL4-3, U87.CD4.CXCR4, 72 h
[2] = MMV: MTT Cytotoxicity Assay Day 3 pi, U87-CD4-CCR5 cells, % cell death @ 5mM compound; type: toxicity, cell-based; conditions: human, u87-cd4-ccr5, 5000 µM
[3] = MMV: MTT Cytotoxicity Assay Day 3 pi, U87-CD4-CXCR4 cells, % cell death @ 5mM compound; type: toxicity, cell-based; conditions: human, u87-cd4-cxcr4, 5000 µM
[4] = MMV: MTT Cytotoxicity Assay Day 7 pi of Assay #6 (compound washed out Day 1 pi), U87-CD4-CCR5 cells, % cell death @ 5mM compound; type: toxicity, cell-based; conditions: human, u87-cd4-ccr5, 5000 µM
[5] = MMV: MTT Cytotoxicity Assay Day 7 pi of Assay #7 (compound washed out Day 1 pi), U87-CD4-CXCR4 cells, % cell death @ 5mM compound; type: toxicity, cell-based; conditions: human, u87-cd4-cxcr4, 5000 µM
[6] = system: Human immunodeficiency virus 1; assay: MMV: HIV JRFL CCR5-tropic replication-competent virus, NO washout, P24 ELISA Day 7 pi, U87-CD4-CCR5, % inhibition at 5 mM compound; type: functional; set-up: dose or concentration left out as unconfirmed; conditions: Human immunodeficiency virus 1, JR-FL, U87/CD4/CCR5, 168 h
[7] = MMV: MTT Cytotoxicity Assay Day 7 pi of Assay #10 (NO washout), U87-CD4-CCR5 cells, % cell death @ 5mM compound; type: toxicity, cell-based; conditions: human, u87-cd4-ccr5, 5000 µM
[8] = MMV: MTT Cytotoxicity Assay Day 7 pi of Assay #11 (NO washout), U87-CD4-CXCR4 cells, % cell death @ 5mM compound; type: toxicity, cell-based; conditions: human, u87-cd4-cxcr4, 5000 µM

SMILES | inhibition [1] | % Cell Death [2] | % Cell Death [3] | % Cell Death [4] | % Cell Death [5] | inhibition [6] | % Cell Death [7] | % Cell Death [8]
CCCc1c(C)nc2ccccc2c1O | 9% | 5 | 8 | 22 | 31 | -2% | 18 | 51
CN(C)CCCNc1c2ccccc2nc2ccccc12 | 1% | 30 | 21 | 8 | 15 | 3% | 30 | -4
CCN1CCN(Cc2ccc(NC(=O)c3cc4ccc5cccnc5c4[nH]3)cc2)CC1 |  | -23 | 22 | 38 | -2 | 3% | 9 | 26
